In general, pKi refers to the Ki on a negative log10 scale, so that one unit is a factor of ten. Higher therefore signals a small Ki. One may read the pIC50 as the negative decadic logarithm of the IC50, by convention in mol/L. Read a low pIC50 as a high IC50.

Assay [1] has as its target T1, Acetylcholinesterase (Homo sapiens, UniProt P22303).
Description: Inhibition of AChE (unknown origin) using acetylcholine iodate as substrate preincubated for 10 mins followed by substrate addition by Lineweaver-Burk plot analysis
The target in assay [2] is T1, Acetylcholinesterase. This is another data set of the same source.
Description: Inhibition of AChE (unknown origin) using acetylcholine iodate as substrate preincubated for 10 mins followed by substrate addition by Ellman's method
Assay [3] has as its target Acetylcholinesterase (Electrophorus electricus, UniProt O42275).
Description: Inhibition of electric eel AChE using acetylthiocholine iodide as substrate preincubated for 10 mins followed by substrate addition by Lineweaver-Burk plot analysis

pIC50, pKi: −log10 of the molar value.

T1 sequence (P22303 whole entry): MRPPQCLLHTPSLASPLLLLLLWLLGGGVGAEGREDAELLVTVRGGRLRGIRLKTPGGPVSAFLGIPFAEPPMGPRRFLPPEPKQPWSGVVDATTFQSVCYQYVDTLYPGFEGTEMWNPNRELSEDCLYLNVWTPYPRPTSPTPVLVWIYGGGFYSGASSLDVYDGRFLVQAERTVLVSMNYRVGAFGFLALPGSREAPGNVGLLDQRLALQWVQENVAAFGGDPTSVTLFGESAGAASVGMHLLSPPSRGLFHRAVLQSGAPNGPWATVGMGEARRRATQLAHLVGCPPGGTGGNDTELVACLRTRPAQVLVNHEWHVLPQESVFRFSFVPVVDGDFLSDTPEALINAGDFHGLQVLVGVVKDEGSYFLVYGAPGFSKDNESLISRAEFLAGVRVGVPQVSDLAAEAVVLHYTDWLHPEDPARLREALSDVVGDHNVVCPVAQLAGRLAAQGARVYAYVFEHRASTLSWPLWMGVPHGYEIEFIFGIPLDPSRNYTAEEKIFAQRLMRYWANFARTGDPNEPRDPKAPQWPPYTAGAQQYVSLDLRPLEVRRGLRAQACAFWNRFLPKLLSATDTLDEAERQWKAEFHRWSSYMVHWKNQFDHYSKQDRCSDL
Chain of Acetylcholinesterase (Electrophorus electricus, UniProt O42275) (O42275 whole entry): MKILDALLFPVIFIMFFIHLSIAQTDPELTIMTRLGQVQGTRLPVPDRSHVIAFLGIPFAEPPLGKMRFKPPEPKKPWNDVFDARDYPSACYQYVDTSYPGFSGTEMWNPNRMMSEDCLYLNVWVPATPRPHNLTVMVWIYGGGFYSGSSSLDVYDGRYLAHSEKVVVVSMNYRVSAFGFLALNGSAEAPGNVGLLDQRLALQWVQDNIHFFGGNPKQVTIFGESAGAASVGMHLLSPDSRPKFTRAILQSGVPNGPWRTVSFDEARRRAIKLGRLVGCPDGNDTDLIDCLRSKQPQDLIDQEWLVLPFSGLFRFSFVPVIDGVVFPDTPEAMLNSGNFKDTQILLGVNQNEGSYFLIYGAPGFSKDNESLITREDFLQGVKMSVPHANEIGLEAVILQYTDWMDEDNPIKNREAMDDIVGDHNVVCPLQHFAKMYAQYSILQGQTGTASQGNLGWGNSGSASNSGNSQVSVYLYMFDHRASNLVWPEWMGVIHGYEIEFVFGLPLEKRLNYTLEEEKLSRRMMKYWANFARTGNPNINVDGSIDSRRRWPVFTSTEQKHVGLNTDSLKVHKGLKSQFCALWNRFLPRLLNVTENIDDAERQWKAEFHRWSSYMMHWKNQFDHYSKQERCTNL

On to `CN(C)S(=O)(=O)NC1CCc2ccc(O)cc2C1` (stereo not drawn), for which the pKi at Acetylcholinesterase [1] was 9.14. Further, on Acetylcholinesterase [2], the pIC50 was 7.43.

At Acetylcholinesterase [1], `CN(C)C(=O)N[C@H]1CCc2c(O)cccc2C1` gave a pKi of 8.80. Further, on Acetylcholinesterase [2], the pIC50 was 6.88.

Consider `COc1cccc2c1CC[C@H](NC(=O)N(C)C)C2`, for which the pKi on Acetylcholinesterase [1] was 9.01. Further, the pIC50 against Acetylcholinesterase [2] was 7.70.

Turning to `COc1ccc2c(c1)C[C@@H](NC(=O)N(C)C)CC2`, the pKi at Acetylcholinesterase [1] was 8.97. The same molecule had a pIC50 on Acetylcholinesterase [2] of 7.65.

At Acetylcholinesterase [1], `COc1ccc2c(c1)CCC(NS(=O)(=O)N(C)C)C2` (stereo not drawn) showed a pKi of 8.98. This molecule also had a pIC50 against Acetylcholinesterase [2] of 7.77.

For the molecule `CN(C)S(=O)(=O)NC1CCc2c(O)cccc2C1` (stereo not drawn), the pKi on Acetylcholinesterase [1] is 8.87. On Acetylcholinesterase [2], this molecule gave a pIC50 of 7.51.

`COc1ccc2c(c1)CC(NS(=O)(=O)N(C)C)CC2` (stereo not drawn) showed a negative-log Ki (pKi) on Acetylcholinesterase [1] of 9.08. For the same molecule, at Acetylcholinesterase [2], the pIC50 is 7.80.

The molecule `CN(C)S(=O)(=O)N[C@H]1CCc2cc(O)ccc2C1` showed a pKi on Acetylcholinesterase [1] of 8.91. At Acetylcholinesterase [2], this molecule had a pIC50 of 7.55.

With `CN(C)C(=O)N[C@H]1CCc2ccc(O)cc2C1`, the pKi on Acetylcholinesterase [1] was 8.76. Also, the pIC50 against Acetylcholinesterase [2] is 6.99.

For the molecule `CN(C)C(=O)NC1CCc2cc(O)ccc2C1` (stereo not drawn), the pKi on Acetylcholinesterase [1] is 8.88. This molecule showed a pIC50 at Acetylcholinesterase [2] of 8.15.

In turn, `Oc1ccc(O)cc1` [HYDROQUINONE] showed a pKi at Acetylcholinesterase [3] of 8.91.

Regarding `COc1ccc2c(c1)CCC(NC(=O)N(C)C)C2` (stereo not drawn), on Acetylcholinesterase [1], the pKi was 9.17. Besides, the pIC50 on Acetylcholinesterase [2] was 7.79.

(Values after ChEMBL document CHEMBL3784977, “Acetylcholinesterase and carbonic anhydrase inhibitory properties of novel urea and sulfamide derivatives incorporating dopaminergic 2-aminotetralin scaffolds” (Bioorg Med Chem, 2016).)
